One molecule from BindingDB's records for patent US11970463 (Astrazeneca, 2024) can be followed below.

The series has as its target Potassium voltage-gated channel subfamily H member 2 (Homo sapiens, UniProt Q12809). Kind of series: hERG Assay. The procedure: Experiments were performed on the SyncroPatch 384PE (Nanion Technologies) high throughput patch clamp platform at rt and used medium resistance chips with 4 patch holes per site. hERG-expressing Chinese hamster ovary K1 (CHO) cell line were used in assay-ready format and kept in liquid nitrogen until use. 2 vials of cells (10×10^6 cells per vial) were thawed and added to 20 mL Hepes-buffered saline solution (HBSS). HBSS comprised 140 mM NaCl, 4 mM KCl, 10 mM HEPES and 5 mM Glucose (pH 7.4). The internal patch clamp solution was KF 120 mM, KCl 20 mM, HEPES 10 mM, EGTA 10 mM, and 25 μM Escin (pH7.2). After the initial sealing process was complete, a seal enhancer solution comprising HBSS supplemented with 10 mM CaCl2 and 1 mM MgCl2 was applied to cells. The external solution was then exchanged (4 times) for external patch clamp solution comprising NaCl 80 mM, KCl 4 mM, HEPES 10 mM, CaCl2 2 mM, MgCl2 1 mM, glucose 5 mM, and NMDG 60 mM (pH 7.4). All solutions were stored at rt, except Escin, which was stored at 4° C. All compounds were dispensed in greiner-bio 384 well plates and tested in a 6 point cumulative assay (final DMSO concentration 0.33%). Only wells that passed acceptance criteria (30 MegaOhm seal resistance, Z prime >0.4 and current size >0.2 nA) were used in this analysis.
On the technique in general: Block of hERG is tested as a sign of cardiac risk.

Chain of Potassium voltage-gated channel subfamily H member 2 (Q12809 whole entry): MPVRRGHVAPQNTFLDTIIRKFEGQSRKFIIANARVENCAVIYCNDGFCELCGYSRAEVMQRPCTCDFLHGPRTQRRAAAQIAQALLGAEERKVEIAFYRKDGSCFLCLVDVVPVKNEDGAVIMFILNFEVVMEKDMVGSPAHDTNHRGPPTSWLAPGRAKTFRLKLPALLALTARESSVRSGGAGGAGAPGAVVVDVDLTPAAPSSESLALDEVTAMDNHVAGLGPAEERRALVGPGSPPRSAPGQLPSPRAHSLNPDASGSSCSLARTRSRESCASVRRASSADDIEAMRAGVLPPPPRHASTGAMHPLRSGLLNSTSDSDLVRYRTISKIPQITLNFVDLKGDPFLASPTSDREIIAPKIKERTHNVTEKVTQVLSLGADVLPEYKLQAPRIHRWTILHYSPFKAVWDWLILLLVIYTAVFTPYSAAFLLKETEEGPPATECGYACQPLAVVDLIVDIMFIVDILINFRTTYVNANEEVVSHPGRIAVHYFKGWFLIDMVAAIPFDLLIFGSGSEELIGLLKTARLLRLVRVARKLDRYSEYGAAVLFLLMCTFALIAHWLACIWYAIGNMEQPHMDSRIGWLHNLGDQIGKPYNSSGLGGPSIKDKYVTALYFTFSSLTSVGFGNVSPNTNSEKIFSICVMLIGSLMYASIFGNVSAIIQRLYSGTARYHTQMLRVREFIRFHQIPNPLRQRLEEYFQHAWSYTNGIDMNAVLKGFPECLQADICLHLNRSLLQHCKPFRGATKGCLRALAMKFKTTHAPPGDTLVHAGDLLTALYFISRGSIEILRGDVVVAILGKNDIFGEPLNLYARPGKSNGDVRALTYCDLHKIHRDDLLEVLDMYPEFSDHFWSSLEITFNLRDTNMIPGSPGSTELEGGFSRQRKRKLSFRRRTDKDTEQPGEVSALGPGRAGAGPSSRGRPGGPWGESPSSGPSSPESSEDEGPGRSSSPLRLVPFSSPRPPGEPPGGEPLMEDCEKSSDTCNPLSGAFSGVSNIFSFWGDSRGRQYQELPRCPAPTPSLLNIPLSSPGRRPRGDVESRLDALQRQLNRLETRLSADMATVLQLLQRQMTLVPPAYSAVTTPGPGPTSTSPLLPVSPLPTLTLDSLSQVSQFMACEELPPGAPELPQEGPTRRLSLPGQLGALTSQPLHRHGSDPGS

Usually IC50 stands for the midpoint of a concentration-inhibition curve. Read a high IC50 as weaker potency. The molecule `C[C@@]1(O)CC[C@@H](Nc2nnc(-c3ccc(C(F)(F)F)cc3O)c3ccncc23)C1` [US11970463, Example 38] had an IC50 of 34 µM.
